Data set [1] has as its target T1, PgP (Homo sapiens, UniProt P08183).
T1 construct: purchased BD Biosciences; host or cells: baculovirus membranes
Description: Transwell monolayer efflux assay in MDCK cells transfected with TREx-PgP. The settings on record: 2.5 nM 3H-vinblastine, absence and presence of 250 μM verapamil. It is filed as in vitro ADME. How it is done:
Transwell monolayer efflux assays can be performed by transfecting MDCK cells with the tetracycline-inducible TREx-PgP expression vector. The cells optionally can be transfected with a nucleic acid encoding the transporter of interest. The transfected cells are seeded on polycarbonate filter membranes in transwell dishes and grown for 3-5 days, yielding a polarized monolayer with tight junctions between cells.

The target of data set [2] is T2, hCAT1 (Homo sapiens, UniProt P30825).
T2 construct: expressed in transfected cells; host or cells: LLCPK-TREx (porcine kidney epithelial) cells, induced with tetracycline and butyrate
T2 sequence (P30825 whole entry): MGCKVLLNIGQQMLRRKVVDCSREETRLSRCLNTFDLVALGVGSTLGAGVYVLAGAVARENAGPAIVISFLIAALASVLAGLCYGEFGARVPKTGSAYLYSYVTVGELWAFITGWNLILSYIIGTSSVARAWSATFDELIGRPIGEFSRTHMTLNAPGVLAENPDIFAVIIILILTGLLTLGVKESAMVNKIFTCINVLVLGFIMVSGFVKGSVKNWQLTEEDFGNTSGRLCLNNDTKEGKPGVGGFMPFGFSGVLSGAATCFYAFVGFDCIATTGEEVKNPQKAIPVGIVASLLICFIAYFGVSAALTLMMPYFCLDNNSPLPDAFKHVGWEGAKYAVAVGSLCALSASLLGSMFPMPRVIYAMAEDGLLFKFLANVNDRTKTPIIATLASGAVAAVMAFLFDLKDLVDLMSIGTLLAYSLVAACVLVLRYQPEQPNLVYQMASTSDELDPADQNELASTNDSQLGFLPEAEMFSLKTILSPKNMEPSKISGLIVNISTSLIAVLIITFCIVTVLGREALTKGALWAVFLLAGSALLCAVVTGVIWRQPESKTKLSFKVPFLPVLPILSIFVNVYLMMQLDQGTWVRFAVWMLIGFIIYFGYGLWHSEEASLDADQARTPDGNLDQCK
Description: hCAT1 competition uptake assay (inhibition of 3H-arginine uptake into LLCPK-TREx-hCAT1 cells). It is filed as cell-based. Particulars: 3H-arginine as substrate; for IC50: LLCPK-TREx-hCAT1 cells induced to express hCAT1, 10 minutes at room temperature. Here is the method:
A modified competition uptake assay was developed to determine the ability of a test compound(s) to inhibit the uptake of radiolabeled substrates into LLCPK-TREx-hCAT1 cells induced to over-express hCAT1. The results are stated as affinities (IC50).
The competition uptake assay was prepared as follows: Compounds were prepared for assay by diluting a 100 mM stock concentration (in DMSO) to the appropriate working concentration. Typically, seven-point dose response curves were prepared starting at a final assay concentration of 3 mM and carrying out three-fold dilutions. These dilutions were prepared by making a working “compound” plate that contained a 2×solution of the desired starting concentration of each test compound in duplicate in row A of a v-bottom microtiter plate. Six 3-fold serial dilutions (from row B to G) were made into the sodium free HBSS assay buffer (60 mg/L KH2PO4 (0.4 mM) (Sigma; P-0662); 0.42 g/L KHCO3 (4.17 mM); (Sigma; P-6037); 1 g/L Glucose ([…]) (Sigma; G-7528); 2.1 g/L MOPS (10 mM) (Sigma; M-1254); 1.05 ml/L MgCl2.(H2O)6 (Sigma; M-1028); 100 mg/L MgSO4.(H2O)7 (Sigma; M-5921); 140 mg/L CaCl2 (1.3 mM)(Sigma; C-5080); 19.1 g/L Choline Chloride (137 mM) (Sigma; C-7527), pH to 7.4 with KOH) with the appropriate amount of DMSO so that the DMSO concentration remained constant at all dilutions. The resulting “compound” plate contained serial dilutions of six compounds in duplicate. The final row (H) of the assay plate was filled with HBSS buffer alone (H1-H6) or 10 mM unlabeled Arginine in HBSS (H7-H12) to measure the total or non-specific uptake, respectively.
^3H-Arginine was diluted into HBSS buffer to a final concentration of 4,000 cpm/μl. Sufficient solution was prepared to allow addition of 25 μl/well (the final concentration was 100,000 cpm/well).
LLCPK-TREx-hCAT1 cells, plated in 96-well plates and treated with 2 mM butyrate and tetracycline (or tet analog (e.g., doxycycline), were removed from the CO2 incubator. Growth media was removed from the cells, and the cells were washed twice in room temperature HBSS (100 μl/well/wash) using a 96-well plate washer (Bio Tek ELX405). Alternatively, cells were washed manually with equivalent volumes using a multichannel pipettor. Immediately before beginning the assay, the final 100 μl wash solution was removed from the cells by aspiration.
Using a 96-well pipettor, 25 μl from the “compound” plate was added to each well of the cell plate. The assay was started by adding 25 μl of the ^3H-Arginine working solution. The plate was incubated at room temperature for 10 minutes. The assay was stopped by washing the cells four times with ice-cold HBSS buffer using a ELX405 plate washer (100 μl buffer/well/wash) having an angled buffer dispenser.
Scintillation fluid (200 μl) (Optiphase Supermix (Perkin Elmer) was added to each well, and the plate was covered with a 96-well adhesive plate cover and placed on a shaker for 20 minutes. The plates were counted on a 96-well plate scintillation counter for 60 sec/well. The data were analyzed using a sigmoidal dose response curve-fitting program (Prism, GraphPad, Inc, San Diego, Calif.; equation: one-site competition).
The competition experiment was performed as described in Example 7. Non-specific uptake was determined by measuring the uptake into cells not induced to express the transporter (“no tet”). […] In control cells, uptake of labeled arginine remained at background levels and was largely unaffected by an excess of unlabeled substrates.

For data set [3], the target named is T2, hCAT1. Description: hCAT1 direct uptake assay (LC-MS-MS, LLCPK-TREx-hCAT1 cells induced vs no tet). It is filed as cell-based. The settings on record: direct uptake into LLCPK-TREx-hCAT1 cells. How it is done: Four concentrations (bracketing the affinity as measured by competition assays) per compound were routinely tested. Non-specific uptake was determined by measuring the uptake into cells not induced to express the transporter (“no tet”).
Typically, four concentrations bracketing the IC50 were tested. […] The samples were robustly vortexed and centrifuged for 10 minutes at 13,200 rpm to spin down any precipitate. […] Three additional 2-fold dilutions were made in the subsequent rows (B-D or […]) in HBSS.
An internal standard of 50 μM propranolol in 50:50 ethanol:water was also prepared.
The cells were washed twice in room temperature HBSS (100 μl/well/wash) using a 96-well plate washer (Bio Tek ELX405). Alternatively, cells were washed manually with equivalent volumes using a multichannel pipettor. Immediately before the assay was begun, the final 100 μl wash solution was removed from the cells.
After the final wash, as much of the wash buffer as possible was removed by aspirating the wells with a probe that reached the bottom of the wells. (Residual salts from the wash buffer can adversely affect the LC-MS-MS by disrupting the LC method or by suppressing the MS signal.) 150 μl of a 50:50 ethanol:water solution was added to each well to lyse the cells and extract the test compound. The plate was covered and allowed to sit for 20 minutes at room temperature to ensure cell lysis.
120 μl of the cell extract was removed from each well and transferred to a fresh 96-well v-bottom polypropylene plate. This plate was covered with an adherent cover (top seal) and centrifuged for 15 minutes at 5,700 rpm (Allegra 25R centrifuge) at 4° C. to pellet any cell precipitate. 10 μl of the 50 μM propranolol solution was added to each well of a fresh 96-well plate (a plate amenable for sampling in the LC-MS-MS). […] The levels of intracellular compounds were determined by converting the peak area to concentration by extrapolating from the standard curve for each compound. Uptake was expressed as μM/well.

This note sets out measurements from US7670782B2, “Screening of compounds for CAT1 transporter activity” (XenoPort, Inc., priority 2005, dated 2010).

T1 sequence (P08183 whole entry): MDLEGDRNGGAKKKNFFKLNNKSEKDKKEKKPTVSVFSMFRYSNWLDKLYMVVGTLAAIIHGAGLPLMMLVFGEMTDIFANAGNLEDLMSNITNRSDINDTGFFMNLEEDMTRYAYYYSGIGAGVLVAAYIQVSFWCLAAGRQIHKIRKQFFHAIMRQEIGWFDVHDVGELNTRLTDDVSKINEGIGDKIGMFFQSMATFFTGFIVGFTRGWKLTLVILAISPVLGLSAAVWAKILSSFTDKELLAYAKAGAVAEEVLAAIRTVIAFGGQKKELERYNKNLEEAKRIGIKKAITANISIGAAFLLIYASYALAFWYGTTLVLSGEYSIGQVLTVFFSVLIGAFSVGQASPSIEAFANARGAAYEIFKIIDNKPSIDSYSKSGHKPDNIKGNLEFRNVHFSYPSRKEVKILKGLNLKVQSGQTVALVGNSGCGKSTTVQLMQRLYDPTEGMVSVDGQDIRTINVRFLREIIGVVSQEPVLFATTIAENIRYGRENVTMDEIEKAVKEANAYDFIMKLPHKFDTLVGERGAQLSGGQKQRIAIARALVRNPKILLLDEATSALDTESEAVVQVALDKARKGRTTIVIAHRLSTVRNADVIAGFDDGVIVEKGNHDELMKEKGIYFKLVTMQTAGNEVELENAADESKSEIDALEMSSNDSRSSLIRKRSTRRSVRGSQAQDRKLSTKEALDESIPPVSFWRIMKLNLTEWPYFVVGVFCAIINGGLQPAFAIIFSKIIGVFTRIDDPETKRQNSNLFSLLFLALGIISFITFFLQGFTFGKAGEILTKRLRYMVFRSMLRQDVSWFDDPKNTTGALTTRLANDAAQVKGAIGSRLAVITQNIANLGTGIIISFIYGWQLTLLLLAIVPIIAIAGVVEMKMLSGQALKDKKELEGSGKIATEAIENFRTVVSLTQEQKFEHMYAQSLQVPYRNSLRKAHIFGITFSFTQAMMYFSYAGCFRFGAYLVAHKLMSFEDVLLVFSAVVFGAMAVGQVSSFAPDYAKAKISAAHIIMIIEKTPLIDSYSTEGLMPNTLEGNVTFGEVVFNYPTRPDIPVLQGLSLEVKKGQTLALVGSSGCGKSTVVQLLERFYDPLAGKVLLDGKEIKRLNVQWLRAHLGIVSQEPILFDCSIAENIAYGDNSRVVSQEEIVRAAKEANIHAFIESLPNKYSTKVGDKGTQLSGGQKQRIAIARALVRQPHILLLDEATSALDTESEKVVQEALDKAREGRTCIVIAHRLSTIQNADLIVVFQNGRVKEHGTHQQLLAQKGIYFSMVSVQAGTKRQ

For the compound `CC[C@]1(O)C[C@@H]2CN(CCc3c([nH]c4ccccc34)[C@@](C(=O)OC)(c3cc4c(cc3OC)N(C)[C@H]3[C@@](O)(C(=O)OC)[C@H](OC(C)=O)[C@]5(CC)C=CCN6CC[C@]43[C@@H]65)C2)C1` [^3H-vinblastine, vinblastine], in data set [1], the “PgP substrate status from apical to basolateral and basolateral to apical transport” value is on record as “substrate of PgP”.
As a reminder, the IC50 is the concentration that gives 50% inhibition. Read a high IC50 as a need for much substance. As for `NCCCC[C@H](N)C(=O)O` [Lysine, lysine], the IC50 in data set [2] was 140 µM.
The compound `N=C(N)NCCC[C@H](N)C(=O)O` [Arginine, arginine] displayed an IC50 in data set [2] of 83 µM.
As to `NCCC[C@H](N)C(=O)O` [Ornithine, ornithine], in data set [2], the IC50 worked out at 73 µM.
By pIC50 is commonly meant −log10 of the IC50, conventionally taken in molar units. A low value points to a high IC50. For orientation: Km means the concentration of substrate that gives half-maximal velocity. As for N-methyl arginine [N-Me-Arg], in data set [2] (LLCPK-TREx-hCAT1 cells induced to express hCAT1), the pIC50 stood at 3.7. In data set [2], the IC50 was found to be 190 µM. Also, the pKm in data set [3] stood at 3.8. In addition, in data set [3] (5 minutes at room temperature), the Vmax came out at 3.9 μM/well. The Km in data set [3] (5 minutes at room temperature, specific uptake (+TET minus no TET)) turned out to be 158 µM.
